Results on one compound are retold here after patent US20230094922A1, “METHODS OF THERAPEUTIC PROGNOSTICATION” (GENETIKAPLUS LTD., priority 2020, published 2023).

For this test, the system named is iPSC-derived cortical neurons. Kind of test: Pre- and post-synaptic marker (Synapsin, PSD95) puncta and colocalization imaging analysis. The class given is cell-based, human. The conditions noted are these: for intact synapses (colocalization of pre- and post-synaptic terminals), treated vs untreated: 7 days after treatment (Bupropion also 3 days). As to the method:
iPSC differentiation into neurons-iPSCs were seeded at a density of 3×10^6 cells/well on a hESC-qualified Matrigel pre-coated 6-well plate and incubated at 37° C., 5% CO2 overnight. Differentiation was initiated the following day (day 0) after verifying that 100% confluency was reached. Differentiation media was added daily according to the following order: […]7 (day 15 onward) similar to a previously published protocol developed by for rapid differentiation to cortical neurons. The components of the described media, Q1-7, are provided in Appendix 1. Cells were assessed for differentiation efficiency and cell death on a daily basis. On day 9, differentiated neurons were re-plated on either 96-well plates (destined for staining) or 12-well plates (destined for RNA extraction) that were coated with 15 μg/mL Poly-ornithine diluted in PBS (overnight incubation at 37° C.), followed by 1 μg/mL Laminin and 2 μg/mL Fibronectin diluted in PBS (overnight incubation at 37° C.): Neurons were first rinsed with pre-warmed PBS and 1 ml/well of Accutase was added for 35 minutes at 37° C., 5% CO2. DNAse1 (0.5 mg/mL) was then added for 10 additional minutes. 3 ml of pre-warmed Neurobasal media was added to each well and neurons were gently collected using a 5 ml […]. Wells were then verified for the presence of any remaining neurons. Neurons were spun down and resuspended in Q6 media. Neurons were seeded at a density of 150,000 cells/cm^2 placed back at 37° C. Following four hours of incubation, media was changed to Q6 media (150 μl per 96-well and 1 ml per 12-well). […] For dendritic arborization analysis, pre/post-synaptic markers and colocalization analysis; α-Syn, PSD95 and MAP2 primary antibodies were used. Following washes, fluorophore-coupled secondary antibodies were incubated in the blocking solution for 1 hour at room temperature. The cells were counter-stained with 4',6-diamidino-2-phenylindole (DAPI) for nuclei detection for 15 minutes at room temperature followed by washes with PBS. Imaging was performed using Nikon Spinning Disk Confocal microscope. For imaging of pre- and post-synaptic markers, images were acquired with a 100× objective in z-stacks. For dendritic arborization analysis, images were acquired with a 20× objective in z-stacks. For imaging of dendritic spines, during culture treatment described in materials and methods, cells were infected at Day 20 with human syn-GFP or mKate virus and stained for GFP or mKate. Cells were fixed as described at day 35 and stained with antibodies against GFP or mKate respectively. Images were acquired using the Nikon Confocal Alit with a 60× objective and a 2× digital zoom in z-stacks and using the Nikon spinning disk Microscope with a 100× objective in z-stacks. Neuronal and synaptic morphology was assessed using the Neurolucida software, pre- and post-synaptic marker analysis was performed using CellProfiler and total dendritic length was measured using Fiji software. Immunohistochemical examination was carried out on the induced neuronal cells.

Regarding `CC(NC(C)(C)C)C(=O)c1cccc(Cl)c1` (stereo not drawn) [Bupropion, 3-Chloro-N-tert-butyl-β-keto-α-methylphenethylamin], the “density of post-synaptic terminals (PSD95 puncta), responders vs non-responders” value (after treatment) is on record as “increase in density”. Moreover, the “intact synapses, responders vs non-responders” value (after treatment) is reported as “increase”. Further, the “size of PSD95 puncta (perimeter), responders vs non-responders” value (at baseline and after treatment) is on record as “reduced”. Further, the “levels of pre-synaptic terminals (Synapsin puncta), responders vs non-responders” value (both before and after treatment) was “significantly higher”. In addition, the “pre-synaptic terminals (Synapsin puncta density), following treatment” value (both responders and non-responders) is “increase”. The “Synapsin puncta perimeter size, effect of treatment” value reads like this: (cells from non-responders) “reduction in puncta perimeter size”; (cells from responders) “increase in puncta perimeter size”. The “intact synapses (colocalization of pre- and post-synaptic terminals), treated vs untreated” value is, setting by setting: (neurons from non-responders) “increased intact synapses”; (neurons from responders) “increased intact synapses”. Besides, where the note is “neurons from responders, 7 days after treatment”, the “density of post-synaptic terminals (distance between PSD95 puncta), after vs before treatment” value was “significantly increased”. Where the note is “responders and non-responders”, the “size of PSD95 puncta (perimeter), effect of treatment” value is listed as “no significant effect”.
